Test results as given in patent US4401660A, “Ester derivatives of 5-O-mycaminosyl tylonolide and method of using same” (Eli Lilly and Company, priority 1981, dated 1983).

Tests used:
Mycoplasma synoviae = assay: MIC, broth-dilution microtiter test (Table III); format: cell-based; set-up: unit not given here
Description: (§1) The MIC's in Table II were determined by standard agar-dilution assays. The MIC's in Table III were obtained using a conventional broth-dilution microtiter test.

[1] = test system: Pasteurella multocida 17E; assay: MIC, broth-dilution microtiter test (Table III); format: cell-based; set-up: unit not given here; settings: bovine isolate
Description: as §1

Streptococcus sp. 80 = assay: MIC, broth-dilution microtiter test (Table III); format: cell-based; set-up: unit not given here
Description: as §1

Mycoplasma gallisepticum = assay: MIC, broth-dilution microtiter test (Table III); format: cell-based; set-up: unit not given here
Description: as §1

Mycoplasma hyorhinis = assay: MIC, broth-dilution microtiter test (Table III); format: cell-based; set-up: unit not given here
Description: as §1

Staphylococcus aureus = assay: MIC, broth-dilution microtiter test (Table III); format: cell-based; set-up: unit not given here
Description: as §1

[2] = test system: Pasteurella multocida 60A; assay: MIC, broth-dilution microtiter test (Table III); format: cell-based; set-up: unit not given here; settings: avian isolate
Description: as §1

[3] = test system: Streptococcus Group D X66; assay: MIC, standard agar-dilution assay (Table II); format: cell-based; set-up: unit not given here
Description: as §1

[4] = test system: Staphylococcus aureus S13E; assay: MIC, standard agar-dilution assay (Table II); format: cell-based; set-up: unit not given here
Description: as §1

[5] = test system: Haemophilus influenzae R252; assay: MIC, standard agar-dilution assay (Table II); format: cell-based; set-up: unit not given here; settings: Haemophilus influenzae R252, ampicillin-resistant strain
Description: as §1

[6] = test system: Streptococcus pyogenes C203; assay: MIC, standard agar-dilution assay (Table II); format: cell-based; set-up: unit not given here
Description: as §1

[7] = test system: Streptococcus Group D 9960; assay: MIC, standard agar-dilution assay (Table II); format: cell-based; set-up: unit not given here
Description: as §1

[8] = test system: Streptococcus pneumoniae Park I; assay: MIC, standard agar-dilution assay (Table II); format: cell-based; set-up: unit not given here
Description: as §1

[9] = test system: Staphylococcus aureus X1.1; assay: MIC, standard agar-dilution assay (Table II); format: cell-based; set-up: unit not given here
Description: as §1

[10] = test system: Staphylococcus epidermidis EPI2; assay: MIC, standard agar-dilution assay (Table II); format: cell-based; set-up: unit not given here
Description: as §1

[11] = test system: Haemophilus influenzae Holt; assay: MIC, standard agar-dilution assay (Table II); format: cell-based; set-up: unit not given here; settings: ampicillin-sensitive strain
Description: as §1

[12] = test system: Staphylococcus aureus V41; assay: MIC, standard agar-dilution assay (Table II); format: cell-based; set-up: unit not given here; settings: Staphylococcus aureus V41, penicillin-resistant strain
Description: as §1

[13] = test system: Staphylococcus aureus X400; assay: MIC, standard agar-dilution assay (Table II); format: cell-based; set-up: unit not given here; settings: Staphylococcus aureus X400, methicillin-resistant strain
Description: as §1

[14] = test system: Staphylococcus epidermidis EPI1; assay: MIC, standard agar-dilution assay (Table II); format: cell-based; set-up: unit not given here
Description: as §1

Pasteurella multocida = assay: Treatment of Pasteurella infections in chicks (Table V); format: in vivo, one-day-old chicks; settings: Pasteurella multocida, sc, 4 h; 30 mg/kg by subcutaneous injection one and four hours post challenge; read-out: Deaths in Treated Chicks/Number Treated (converted)
Description: Certain OMT ester derivatives are active in vivo against Pasteurella infections. Table V summarizes the results of tests in which the ester derivatives were administered to one-day-old chicks at a dosage level of 30 mg/kg by subcutaneous injection one and four hours post challenge of the chicks with Pasteurella multocida (0.1 ml of a 10^-3 dilution of a 20-hour tryptose broth culture of avian P. multocida given subcutaneously). All nonmedicated infected chicks (ten in each control group) died within 24 hours of Pasteurella challenge.

[15] = test system: Pasteurella multocida 68C; assay: MIC, broth-dilution microtiter test (Table III); format: cell-based; set-up: unit not given here
Description: as §1

[16] = test system: Pasteurella haemolytica 23C; assay: MIC, broth-dilution microtiter test (Table III); format: cell-based; set-up: unit not given here
Description: as §1

[17] = test system: Pasteurella haemolytica 41D; assay: MIC, broth-dilution microtiter test (Table III); format: cell-based; set-up: unit not given here
Description: as §1

[18] = test system: Pasteurella haemolytica 22C; assay: MIC, broth-dilution microtiter test (Table III); format: cell-based; set-up: unit not given here
Description: as §1

[19] = test system: Pasteurella multocida 22A; assay: MIC, broth-dilution microtiter test (Table III); format: cell-based; set-up: unit not given here
Description: as §1

Row | SMILES | minimal inhibitory concentration (MIC) (Mycoplasma synoviae) | minimal inhibitory concentration (MIC) [1] | minimal inhibitory concentration (MIC) (Streptococcus sp. 80) | minimal inhibitory concentration (MIC) (Mycoplasma gallisepticum) | minimal inhibitory concentration (MIC) (Mycoplasma hyorhinis) | minimal inhibitory concentration (MIC) (Staphylococcus aureus) | minimal inhibitory concentration (MIC) [2] | minimal inhibitory concentration (MIC) [3] | minimal inhibitory concentration (MIC) [4] | minimal inhibitory concentration (MIC) [5] | minimal inhibitory concentration (MIC) [6] | minimal inhibitory concentration (MIC) [7] | minimal inhibitory concentration (MIC) [8] | minimal inhibitory concentration (MIC) [9] | minimal inhibitory concentration (MIC) [10] | minimal inhibitory concentration (MIC) [11] | minimal inhibitory concentration (MIC) [12] | minimal inhibitory concentration (MIC) [13] | minimal inhibitory concentration (MIC) [14] | mortality at 30 mg/kg (Pasteurella multocida) [%] | further results
1 | CCC1OC(=O)CC(O)C(C)C(OC2OC(C)C(OC(C)=O)C(N(C)C)C2OC(C)=O)C(CC=O)CC(C)C(=O)C=CC(C)=CC1COC(=O)CC(C)C (centres unmarked) [Compound 21, 2',4'-Di-O-acetyl-23-O-i-valeryl-OMT] | < 0.05 | 1.56 | 0.195 | < 0.05 | 0.78 | 0.39 | 1.56 | 0.5 | 0.5 | 8 | 0.5 | 0.5 | 0.5 | 0.5 | 0.5 | 2 | 0.5 | 1 | 0.5 | 100 | –
2 | CCCCCCCC(=O)OCC1C=C(C)C=CC(=O)C(C)CC(CC=O)C(OC2OC(C)C(O)C(N(C)C)C2O)C(C)C(O)CC(=O)OC1CC (centres unmarked) [Compound 24] | 0.097 | 6.25 | 0.39 | < 0.05 | 6.25 | 0.78 | 6.25 | 0.5 | 0.25 | 4 | 0.5 | 0.5 | 0.125 | 0.25 | 0.25 | 4 | 0.5 | 0.5 | 0.25 | 10 | –
3 | CCCC(=O)OCC1C=C(C)C=CC(=O)C(C)CC(CC=O)C(OC2OC(C)C(OC(C)=O)C(N(C)C)C2OC(C)=O)C(C)C(O)CC(=O)OC1CC (centres unmarked) [Compound 15] | < 0.05 | 1.56 | 0.097 | < 0.05 | 0.78 | 0.39 | 1.56 | 0.5 | 0.25 | 2 | 0.25 | 0.5 | 0.25 | 0.25 | 0.5 | 2 | 0.5 | 0.5 | 0.25 | 100 | –
4 | CCCC(=O)OCC1C=C(C)C=CC(=O)C(C)CC(CC=O)C(OC2OC(C)C(O)C(N(C)C)C2O)C(C)C(O)CC(=O)OC1CC (centres unmarked) [Compound 16] | 0.097 | 1.56 | 0.195 | < 0.05 | 0.78 | 0.39 | 3.12 | 0.25 | 0.25 | 2 | 0.25 | 0.25 | 0.06 | 0.25 | 0.25 | 2 | 0.25 | 0.5 | 0.25 | 60 | –
5 | CCC1OC(=O)CC(O)C(C)C(OC2OC(C)C(O)C(N(C)C)C2O)C(CC=O)CC(C)C(=O)C=CC(C)=CC1COC(=O)C(C)C (centres unmarked) [Compound 18] | < 0.05 | 1.56 | 0.195 | < 0.05 | 0.39 | 0.78 | 3.12 | 0.5 | 0.25 | 4 | 0.5 | 0.5 | 0.25 | 0.25 | 0.5 | 2 | 0.5 | 0.5 | 0.25 | 0 | –
6 | CCC1OC(=O)CC(O)C(C)C(OC2OC(C)C(OC(C)=O)C(N(C)C)C2OC(C)=O)C(CC=O)CC(C)C(=O)C=CC(C)=CC1COS(C)(=O)=O (centres unmarked) [Compound 45] | 0.39 | 3.12 | 0.195 | 0.39 | 3.12 | 0.78 | 1.56 | 1 | 1 | – | – | 1 | – | 1 | 2 | – | 2 | 2 | 0.5 | 100 | minimal inhibitory concentration (MIC) [15]: 1.56; minimal inhibitory concentration (MIC) [16]: 3.12; minimal inhibitory concentration (MIC) [17]: 6.25; minimal inhibitory concentration (MIC) [18]: 6.25; minimal inhibitory concentration (MIC) [19]: 3.12
7 | CCCCCCCC(=O)OCC1C=C(C)C=CC(=O)C(C)CC(CC=O)C(OC2OC(C)C(OC(C)=O)C(N(C)C)C2OC(C)=O)C(C)C(O)CC(=O)OC1CC (centres unmarked) [Compound 23] | 0.39 | 6.25 | 0.39 | 0.097 | 3.12 | 0.78 | 6.25 | 1 | 0.5 | 8 | 0.5 | 1 | 0.25 | 0.25 | 0.5 | 8 | 0.5 | 1 | 0.5 | 100 | –
8 | CCCCC(=O)OCC1C=C(C)C=CC(=O)C(C)CC(CC=O)C(OC2OC(C)C(OC(C)=O)C(N(C)C)C2OC(C)=O)C(C)C(O)CC(=O)OC1CC (centres unmarked) [Compound 19] | < 0.05 | 1.56 | < 0.05 | < 0.05 | 6.25 | 0.39 | 3.12 | 0.5 | 0.25 | 2 | 0.25 | 0.5 | 0.03 | 0.25 | 0.125 | 2 | 0.25 | 0.5 | 0.125 | 100 | –
